One assay deals with PD-1/PD-L1 (Homo sapiens (Human), UniProt Q9NZQ7). The assay can be described thus: Homogeneous Time-Resolved Fluorescence (HTRF) PD-1/PD-L1 binding assay. Particulars: recombinant human PD-1 and PD-L1, 25° C., pH 7.4. The procedure: Example A. Homogeneous Time-Resolved Fluorescence (HTRF) PD-1/PD-L1 Binding Assay
The assays were conducted in a standard black 384-well polystyrene plate with a final volume of 20 μL. Inhibitors were first serially diluted in DMSO and then added to the plate wells before the addition of other reaction components. The final concentration of DMSO in the assay was 1%. The assays were carried out at 25° C. in the PBS buffer (pH 7.4) with 0.05% Tween-20 and 0.1% BSA. Recombinant human PD-L1 protein (19-238) with a His-tag at the C-terminus was purchased from AcroBiosystems (PD1-H5229). Recombinant human PD-1 protein (25-167) with Fc tag at the C-terminus was also purchased from AcroBiosystems (PD1-H5257). PD-L1 and PD-1 proteins were diluted in the assay buffer and 10 μL was added to the plate well. Plates were centrifuged and proteins were preincubated with inhibitors for 40 minutes. The incubation was followed by the addition of 10 μL of HTRF detection buffer supplemented with Europium cryptate-labeled anti-human IgG (PerkinElmer-AD0212) specific for Fc and anti-His antibody conjugated to SureLight®-Allophycocyanin (APC, PerkinElmer-AD0059H). After centrifugation, the plate was incubated at 25° C. for 60 min. before reading on a PHERAstar FS plate reader (665 nm/620 nm ratio). Final concentrations in the assay were—3 nM PD1,10 nM PD-L1, 1 nM europium anti-human IgG and 20 nM anti-His-Allophycocyanin. IC50 determination was performed by fitting the curve of percent control activity versus the log of the inhibitor concentration using the GraphPad Prism 5.0 software.

Assay [1] relates to PD-L1 aAPC/CHO-K1 cells and Jurkat-PD-1-NFAT effector cells. The assay is described as follows: Nuclear factor of activated T-cells (NFAT) assay. It counts as cell-based. Particulars: Cricetulus griseus; PD-L1 aAPC/CHO-K1 cells with Jurkat-PD-1-NFAT effector cells, 24 hours. As for the experimental part:
Example C. Nuclear Factor of Activated T-Cells (NFAT) Assay
PD-L1 aAPC/CHO-Klcells (Promega) were maintained in F-12 medium with addition of 10% FBS, 200 μg/ml Hygromycin B, 250 μg/ml Geneticin (G418). Jurkat-PD-1-NFAT effector cells (Promega) were cultured in RPMI 1640 medium supplemented with 10% FBS, 100 μg/ml Hygromycin B, 500 μg/ml G418. The culture media of PD-L1 aAPC/CHO-K1 cells were first replaced with assay medium (RPMI1640 medium with 1% FBS). The PD-L1 aAPC/CHO-K1 cells were then added in a white 384-well white clear bottom assay plate (CELLCOAT® Tissue Culture Plates, Greiner Bio-One) at 8000 per well in 10 μL assay medium. Test compounds were prepared by serial dilution in DMSO and 0.8 μL test compounds in DMSO were first transferred to the 384 REMP plate well (Thermofisher) by PlateMate Plus (Thermofisher) followed with addition of 50 μL plating medium. 5 μL compounds in the assay medium were transferred to the cells with 0.4% DMSO in the final assay at 2 μM. After removing the culture media, 10,000 Jurkat-PD-1-NFAT effector cells in 5 μL assay medium was dispensed into each well. The assay plate was incubated at 37° C., 5% CO2 for 24 hours. After the assay plate was equilibrated to room temp for 15 minutes, 20 µL/well of Bio-Glo™ reagent (Promega) were added. After 8 minutes incubation at room temperature, luminescence was read at with Pherastar microplate reader (BMG Labtech). The fold of induction (FOI) was calculated based on the ratio of luminescence normalized to the DMSO wells within each assay plate. The maximum percentage of induction was reported based on the ratio between the highest FOI of each compound and the maximum FOI of control compound within each assay plate. Wells with DMSO were served as the negative controls and wells containing control compound with the highest FOI were used as positive controls. EC50 determination was performed by fitting the curve of percent control activity versus the log of the compound concentration using the GraphPad Prism 6.0 software.

For another assay, the target named is PD-L1 (Homo sapiens (Human), UniProt Q9NZQ7). The assay is described as follows: PD-L1 whole blood internalization assay. The class given is cell-based. The settings on record: 1 ng/ml human interferon γ, PD-L1 expression on CD14+ cells, read-out: Whole Blood (24 HR) IC50. The procedure:
Example D. PD-L1 Whole Blood Internalization Assay
To determine PD-L1 internalization in human whole blood, normal human blood (Biological Specialty Corp, Colmar. Pa.) was incubated in the presence or absence of a concentration range of test compounds and 1 ng/ml human interferon γ (R&D Systems Inc. Minn. […] Blood was then stained with PD-L1 (MIH1, eBioscience; or BD Biosciences San Jose, Calif.), CD14 (Life Technologies, Carlsbad, Calif.) for 30 minutes in the dark at room temperature. Whole Blood/red cells were lysed/fixed (lysis buffer BD Biosciences) for 5 minutes at 37° C. in the dark and then centrifuged at 1600 RPM for 5 minutes. Cells were resuspended in Stain Buffer (BD Bioscience, San Jose, Calif.) and transferred into 96 well round bottom plates (Corning). Cells were gated on CD14+(BD Biosciences) and PD-L1 expression determined by mean fluorescence intensity (MFI) (BD LSRFortessa™ X-20). IC50 determination was performed by fitting the curve of compound percent inhibition versus the log of the compound concentration using the GraphPad Prism 7.0 software.

Chain of PD-1/PD-L1 (Q9NZQ7 19-238): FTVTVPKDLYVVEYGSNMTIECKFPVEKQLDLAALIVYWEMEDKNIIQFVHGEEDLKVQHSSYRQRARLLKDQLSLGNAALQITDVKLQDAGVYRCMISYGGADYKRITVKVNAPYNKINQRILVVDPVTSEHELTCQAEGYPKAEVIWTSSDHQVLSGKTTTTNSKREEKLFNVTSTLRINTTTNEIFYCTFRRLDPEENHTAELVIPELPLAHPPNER
Chain of PD-L1 (Q9NZQ7 19-290): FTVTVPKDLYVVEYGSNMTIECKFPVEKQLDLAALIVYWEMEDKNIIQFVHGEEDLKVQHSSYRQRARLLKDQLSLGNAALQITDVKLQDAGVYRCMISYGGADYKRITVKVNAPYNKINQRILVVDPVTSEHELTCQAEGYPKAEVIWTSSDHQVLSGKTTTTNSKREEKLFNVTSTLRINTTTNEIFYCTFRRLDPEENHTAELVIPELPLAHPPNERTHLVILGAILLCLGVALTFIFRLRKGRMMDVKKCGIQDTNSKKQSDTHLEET

Take `Cc1c(Nc2nc(C(F)F)nc3cc(CN4CC[C@@H](O)C4)cnc23)cccc1-c1cccc(-c2nc3cc(CN4CCC(C)(C(=O)O)CC4)cc(C#N)c3o2)c1C` [Example 24, (R)-1-((7-cyano-2-(3′-(2-(difluoromethyl)-7-((3-hydroxypyrrolidin-1-yl)methyl)pyrido[3,2-d]pyrimidin-4-ylamino)-2,2′-dimethylbiphenyl-3-yl)benzo[d]oxazol-5-yl)methyl)-4-methylpiperidine-4-carboxylic Acid]: the IC50 (as a rule, the point on the concentration scale where inhibition reaches its midpoint) on PD-1/PD-L1 is at most 10 nM; at PD-L1, 10 to 100 nM. Also, the EC50 (commonly the concentration at which the effect is half-maximal) in assay [1] was in the range of 10 to 100 nM.

On to `Cc1c(Nc2nc(CO)nc3cc(CN4CC[C@@H](O)C4)cnc23)cccc1-c1cccc(-c2nc3cc(CN4CCC(C(=O)O)CC4)cc(C#N)c3o2)c1C` [Example 32, (R)-1-((7-cyano-2-(3′-(2-(hydroxymethyl)-7-((3-hydroxypyrrolidin-1-yl)methyl)pyrido[3,2-d]pyrimidin-4-ylamino)-2,2′-dimethylbiphenyl-3-yl)benzo[d]oxazol-5-yl)methyl)piperidine-4-carboxylic Acid], for which the IC50 on PD-1/PD-L1 was at most 10 nM; at PD-L1 it was 10 to 100 nM. This molecule gave an EC50 in assay [1] of 10 to 100 nM.

With `Cc1c(Nc2nc(C(F)F)nc3cc(CN4CC[C@@H](O)C4)cnc23)cccc1-c1cccc(-c2nc3cc(CN4CC[C@](C)(C(=O)O)C4)cc(C#N)c3o2)c1C` [Example 23, (S)-1-((7-cyano-2-(3′-(2-(difluoromethyl)-7-(((R)-3-hydroxypyrrolidin-1-yl)methyl)pyrido[3,2-d]pyrimidin-4-ylamino)-2,2′-dimethylbiphenyl-3-yl)benzo[d]oxazol-5-yl)methyl)-3-methylpyrrolidine-3-carboxylic Acid], the IC50 on PD-1/PD-L1 is at most 10 nM; at PD-L1, 10 to 100 nM. The molecule also yielded an EC50 in assay [1] of at most 10 nM.

With `Cc1c(Nc2nc(C(F)F)nc3cc(CN4CC[C@@H](O)C4)cnc23)cccc1-c1cccc(-c2nc3cc(CN4CC[C@H](C(=O)O)C4)cc(C#N)c3o2)c1C` [Example 22, (S)-1-((7-cyano-2-(3′-(2-(difluoromethyl)-7-(((R)-3-hydroxypyrrolidin-1-yl)methyl)pyrido[3,2-d]pyrimidin-4-ylamino)-2,2′-dimethylbiphenyl-3-yl)benzo[d]oxazol-5-yl)methyl)pyrrolidine-3-carboxylic Acid], the half-inhibitory concentration (IC50) at PD-1/PD-L1 was at most 10 nM; at PD-L1 it was 10 to 100 nM. In assay [1], this molecule gave an EC50 of 10 to 100 nM.

Take `Cc1c(Nc2nc(C(F)F)nc3cc(CN4CC[C@@H](O)C4)cnc23)cccc1-c1cccc(-c2nc3cc(CN4CCC(C(=O)NCCC(=O)O)CC4)cc(C#N)c3o2)c1C` [Example 27, (R)-3-(1-((7-cyano-2-(3′-(2-(difluoromethyl)-7-((3-hydroxypyrrolidin-1-yl)methyl)pyrido[3,2-d]pyrimidin-4-ylamino)-2,2′-dimethylbiphenyl-3-yl)benzo[d]oxazol-5-yl)methyl)piperidine-4-carboxamido)propanoic Acid]: the figures for the IC50 on PD-1/PD-L1 and at PD-L1 were at most 10 nM and 10 to 100 nM, respectively. In addition, the EC50 in assay [1] fell in the range of 10 to 100 nM.

Regarding `CNC(=O)C1CCN(Cc2cc(C#N)c3oc(-c4cccc(-c5cccc(Nc6nc(C(F)F)nc7cc(CN8CC[C@@H](O)C8)cnc67)c5C)c4C)nc3c2)CC1` [Example 26, (R)-1-((7-cyano-2-(3′-(2-(difluoromethyl)-7-((3-hydroxypyrrolidin-1-yl)methyl)pyrido[3,2-d]pyrimidin-4-ylamino)-2,2′-dimethylbiphenyl-3-yl)benzo[d]oxazol-5-yl)methyl)-N-methylpiperidine-4-carboxamide], the values for the IC50 on PD-1/PD-L1 and at PD-L1 were at most 10 nM and 10 to 100 nM, respectively. This molecule also came in with an EC50 in assay [1] of at most 10 nM.

With `Cc1c(Nc2nc(C(F)F)cc3cc(CN4CC[C@@H](O)C4)cnc23)cccc1-c1cccc(-c2nc3cc(CN4CC[C@@](C)(C(=O)O)C4)cc(C#N)c3o2)c1C` [Example 34, (R)-1-((7-cyano-2-(3′-(6-(difluoromethyl)-3-(((R)-3-hydroxypyrrolidin-1-yl)methyl)-1,7-naphthyridin-8-ylamino)-2,2′-dimethylbiphenyl-3-yl)benzo[d]oxazol-5-yl)methyl)-3-methylpyrrolidine-3-carboxylic Acid], the concentration for half-maximal inhibition (IC50) on PD-1/PD-L1 is at most 10 nM; on PD-L1 it was 100 to 500 nM. The concentration for a half-maximal effect (EC50) in assay [1] was at most 10 nM.

With `Cc1c(Nc2nc(C(F)F)nc3cc(CN4CC[C@@H](O)C4)cnc23)cccc1-c1cccc(-c2nc3cc(CN4CCC(C(=O)N(C)C)CC4)cc(C#N)c3o2)c1C` [Example 25, (R)-1-((7-cyano-2-(3′-(2-(difluoromethyl)-7-((3-hydroxypyrrolidin-1-yl)methyl)pyrido[3,2-d]pyrimidin-4-ylamino)-2,2′-dimethylbiphenyl-3-yl)benzo[d]oxazol-5-yl)methyl)-N,N-dimethylpiperidine-4-carboxamide], the results for the IC50 at PD-1/PD-L1 and at PD-L1 were at most 10 nM and 10 to 100 nM, respectively. The same molecule displayed an EC50 in assay [1] of 10 to 100 nM.
